The source of these data is patent US7205261B2, “Use of certain N-acylethanolamines to achieve ethylene- and cytokinin-like effects in plants and fungi” (Nutra-Park, Inc., priority 2002, dated 2007).

The subject of assay [1] is Raphanus sativus L. cv. Cherry Belle cotyledons. Briefly: Radish cotyledon bioassay (expansion growth and chlorophyll accumulation). Conditions: for Change in fresh weight: continuous illumination, 25° C., ten cotyledons; for activity at 20 µg/mL: Raphanus sativus, read-out: Change in fresh weight, % of control; for ethylene-like activities (summary of the examples) / cytokinin-like activities (summary of the examples): summary statement in the description. It is filed as in vivo. The source says:
Radish cotyledon bioassay: This bioassay using Raphanus sativus L. cv. Cherry Belle cotyledons was developed by Letham, DS (Physiologia Plantarum 25, 391–396, 1971, incorporated by reference in its entirety) to evaluate the efficacy of cytokinin on cell enlargement. Success using this assay is not restricted to radish. […] In addition to their effect on cell division, cytokinin plays a major role in driving cell enlargement. Compounds in this class of phytohormone and with cytokinin activity also help maintain photosynthetic activity and productivity and abolish proteolytic activity. In cotyledon leaf systems, a requirement for cytokinin is critical and removal of the roots (i.e. the presumed source of cytokinin) renders the cotyledon leaves unable to expand. Exposure to cytokinin (0.02–22 μg/ml) results in a dramatic increase in fresh weight of cotyledons within 72 hours. This effect is not observed with either gibberellin or auxin and is usually delayed or inhibited by abscisic acid and the ethylene precursor, 1-aminocyclopropane-1-carboxylic acid (ACC). […] Thus, the mode of action of cytokinin in this system appears to be similar to that of indole-3-acetic acid (IAA) in auxin-induced stem elongation, a process that depends on an increase in the mechanical extensibility of the cell wall. However, cytokinin antagonizes IAA-mediated cell elongation and appears to do so by promoting ethylene production. Furthermore, cytokinin-induced cell expansion is not usually accompanied by proton (H^+) extrusion and no change in plasma membrane ATPase activity is evident.
Seeds of Raphanus sativus L. cv. Cherry-Belle were germinated in darkness at 24° C. for 36 h in Petri dishes containing filter paper wetted with distilled water. The smaller of the two cotyledons was excised, the fresh weight determined, and 10 cotyledons placed adaxial side down on filter paper in Petri dishes containing 10 ml of KPO4 buffer (2 mM, pH 6.0) and the compounds to be tested at 20 mg/l. […] Chlorophyll content was determined after extraction of tissue into 80% ethanol (containing butylated hydroxytoluene (BHT) 10 mg/l) using the equations Chl a=(13.95A663)−(6.88A647) and Chl b=(24.96A652)−(7.32A663) as described by Lichtenthaler, HK, Methods in Enzymology 148: 350–382, 1987, incorporated by reference in its entirety. FIG. 6 illustrates the difference in cotyledon size in response to the cytokinin kinetin.

In the next assay the test system is maize roots. Briefly: Corn root bioassay (ethylene production by maize roots). It is filed as in vivo, Zea mays L. Conditions: for activity at 20 µg/mL: Zea mays, read-out: Ethylene, % of control; for activity at 20 µg/mL / Ethylene: 20 mg/l. On the procedure:
Corn root bioassay: It is well established that roots of Zea mays produce ethylene when exposed to a variety of stresses (for review, see Morgan, PW and Drew, MC, Physiologia Plantarum 100: 620–630, 1997). Mechanical impedance and hypoxia both induce ethylene formation and usually as early as 1 hour after exposure. In response to ethylene treatment, maize roots show decreased expansion and elongation, a high incidence of cell death and the formation of aerenchyma tissue—particularly evident when roots are exposed to hypoxic conditions (Drew, MC et al., Trends in Plant Science 5: 123–127, 2000, Morgan and Drew 1997).
Seeds of Zea mays L. were sown in flats of Perlite, covered with a layer of vermiculite, and irrigated daily with water and/or 1/10 Hoagland solution. Seedlings were cultivated under continuous illumination at 22–25° C. and used when 7 d old. Seedlings were removed from the Perlite and washed under running tap water. Seedlings were allowed to acclimate in water and/or 1/10 Hoagland solution for several hours before being transferred to Falcon tubes containing the test compounds (all 20 mg/l) prepared in 1/10 Hoagland solution. […] Roots were then transferred to gas-tight tubes each containing 200 μl of water. The tubes were sealed and incubated at 26° C. for 1–2 h in darkness before gas samples were drawn from the incubation tubes using a 1 ml syringe and assayed by gas chromatography (Romera, FJ et al. (1999) Annals of Botany 83, 51–55).

In assay [2] the test system is tomato variety FL47 mature green tomatoes. Briefly: Tomato bioassay (spray application or vacuum infiltration of harvested mature green tomatoes, ripening judged by colour). It is filed as in vivo. Conditions: 5 to 7 days after treatment, FIGS. 2-5. On the procedure:
Tomato bioassay: NAE solutions containing 20 ppm or 500 ppm of NAE were used to treat harvested tomatoes as described below. The solutions were prepared by dispersing a solid NAE compound in water through sonication.
Egg LPE was purchased from Avanti Polar Lipids (Alabaster, Ala.). Egg LPE solutions containing 20 ppm or 500 ppm LPE were used as positive controls in the assays described below. The solutions were prepared by dispersing LPE into water through sonication or aggressive agitation.
The tomatoes used in this study were tomato variety FL47 (cultivar), 6×6 mature green tomatoes of good quality MG3–4 ([…]: no apparent external change from green to pink). The tomatoes were purchased from West Coast Tomato (Palmetto, Fla.) and Dimare Tomato (Homestead, Fla.).
The system used for classifying tomato mature stages is as the follows: Green (Stage 1)—“Green” means that the surface of the tomato is completely green in color. The shade of green may vary from light to dark. Breakers (Stage 2)—“Breakers” means there is a definite “break” in color from green, to tannish-yellow, pink or red on not more than 10% of the surface. […] Red (R) (Stage 6)—“Red” means that more than 90% of the surface, in the aggregate, is red.
Locules contain hard, white substance. […] Seeds are forming and are white. […] Seeds are fully formed and are turning from white to beige. MG4-Fruit are softening a little but still completely green on the outside. Inside locular gel is completely formed with hints of pink coloration in the columella tissue. Seeds are dark beige to light brown.
In spray application bioassays, the tomatoes were placed in 100° F. water for 90 seconds, after which the tomatoes were removed from water and placed stem scar up onto a sheet of plastic. An NAE solution or LPE solution was sprayed onto the tomatoes at 30 psi using a flat fan tip situated approximately 8 to 10 inches above the tomatoes. The tomatoes were air dried and placed on a sheet of white paper with stem scar down under consistent environmental conditions. Five to seven days later, the ripening of the tomatoes were determined by visual observation of the color of the tomatoes.
In vacuum infiltration bioassay, each tomato was placed on top of a vacuum bell jar platform with stem scar facing up. 0.5 ml of NAE solution or LPE solution was placed onto stem scar and the glass bell jar lid was lowered onto the jar platform. The vacuum was started and the air escaped from the interior of the tomato causing the NAE solution or the LPE solution on the stem scar to bubble. After a preset time period, the air inlet was opened slowly to release vacuum in the bell jar. […] Five to seven days later, the ripening of the tomatoes were determined by visual observation of the color of the tomatoes.

The mark [3] stands for this setting: experiment 2, 36 h illumination, roots incubated 2 h in darkness at 24° C.
Where [4] appears, read: Table 3, 48 h incubation, 20 mg/l.

The structures appear in SMILES notation. Where two headings read alike, the source gives them in different places.

In the case of `CCCCCCCC(=O)NCCO` [NAE-8:0, N-Octanoyl-2-aminoethanol], the Chlorophyll a/b in assay [1] (Experiment 1, 20 mg/l, 72 h) was found to be 1.5; in assay [1] (Experiment 2, 20 mg/l, 48 h), 1.8. The “Change in fresh weight” value amounted to 13.32 ± 6.40 mg in assay [1] (Experiment 1, 20 mg/l, 72 h) and 8.29 ± 0.72 mg in assay [1] (Experiment 2, 20 mg/l, 48 h). In assay [1] (Experiment 2, 20 mg/l, 48 h), the “Chlorophyll (mg/g FW) a + b” value was 1.75 mg/g FW. Besides, in assay [1] (Experiment 2, 20 mg/l, 48 h), the “Chlorophyll (μg/cotyledon) a + b” value was determined as 22.27 μg/cotyledon. In addition, the activity at 20 µg/mL worked out at 95% in assay [1] (Experiment 1, 20 mg/l, 72 h); 102% in assay [1] (Experiment 2, 20 mg/l, 48 h); 116% with maize roots (experiment 1, 72 h); 193% in the assay with maize roots (experiment 2, 36 h). Further, the “chlorophyll accumulation (in words)” value in assay [1] (Table 2, 72 h incubation, 20 mg/l) was “greater effect than other NAEs”. Also, the “ethylene-like activities (summary of the examples)” value in assay [1] is “ethylene-like activities”. Besides, the Ethylene with maize roots (experiment 1, 72 h illumination, roots incubated 2 h in gas tight tubes) was 685.2 ± 211.6 nL/g FW/h; in the assay with maize roots (setting [3]), 55.46 ± 31.59 pmol/g FW/h. For the same compound, in the assay on maize roots (second experiment (Table 5)), the “relative efficacy on ethylene formation (in words)” value is “strongest effect”.

Regarding `CCCCCCCCCC(=O)NCCO` [NAE-10:0, N-Decanoyl-2-aminoethanol], in assay [1] (Experiment 1, 20 mg/l, 72 h), the Chlorophyll a/b is reported as 1.5, the “Change in fresh weight” value is on record as 10.34 ± 3.28 mg and the activity at 20 µg/mL is 74%. In addition, in assay [1] (Experiment 2, 20 mg/l, 48 h), the “Chlorophyll (mg/g FW) a + b” value amounted to 1.41 mg/g FW, the “Chlorophyll (μg/cotyledon) a + b” value is listed as 22.57 μg/cotyledon, the Chlorophyll a/b is on record as 1.8 and the “Change in fresh weight” value came out at 11.56 ± 2.16 mg. The activity at 20 µg/mL in assay [1] (Experiment 2, 20 mg/l, 48 h) turned out to be 143%. Also, in assay [1] (setting [4]), the “chlorophyll content per unit mass (in words)” value is “decreased chlorophyll content per unit mass”, the “chlorophyll per cotyledon (in words)” value is “increased chlorophyll per cotyledon” and the “hormone-like activity with respect to expansion growth (in words)” value is on record as “cytokinin-like activity”. Also, in assay [1], the “cytokinin-like activities (summary of the examples)” value is “cytokinin-like activities” and the “ethylene-like activities (summary of the examples)” value is “ethylene-like activities”. The activity at 20 µg/mL in the assay on maize roots (experiment 1, 72 h) was 124%. Moreover, the activity at 20 µg/mL with maize roots (experiment 2, 36 h) is 115%. Besides, the Ethylene in the assay with maize roots (setting [3]) came to 33.02 ± 9.63 pmol/g FW/h. In assay [2] (sprayed with 500 ppm), the “number of ripened tomatoes compared to the control group” value (from here on “number … compared to the control group”) is on record as “higher number of ripened tomatoes”. Further, the “number … compared to the control group” value in assay [2] (vacuum infiltrated with 20 ppm) is “higher number of ripened tomatoes”.

For `CCCCCCCCCCCCCC(=O)NCCO` [NAE-14:0, N-Tetradecanoyl-2-aminoethanol], in assay [1] (Experiment 2, 20 mg/l, 48 h), the “Chlorophyll (mg/g FW) a + b” value was determined as 1.90 mg/g FW, the “Chlorophyll (μg/cotyledon) a + b” value was determined as 23.41 μg/cotyledon, the Chlorophyll a/b amounted to 1.8 and the “Change in fresh weight” value worked out at 7.91 ± 1.34 mg. Also, the activity at 20 µg/mL in assay [1] (Experiment 2, 20 mg/l, 48 h) worked out at 98%. Besides, the “cytokinin-like activities (summary of the examples)” value in assay [1] was “cytokinin-like activities”. Further, the “number … compared to the control group” value in assay [2] (sprayed with 500 ppm) was “higher number of ripened tomatoes”. The “number … compared to the control group” value in assay [2] (vacuum infiltrated with 20 ppm) is “higher number of ripened tomatoes”.

As for `CCCCCCCC/C=C\CCCCCCCC(=O)NCCO` [NAE-18:1(Δ9), N-Oleoyl-2-aminoethanol], in assay [1] (Experiment 2, 20 mg/l, 48 h), the “Chlorophyll (mg/g FW) a + b” value is on record as 1.99 mg/g FW, the “Chlorophyll (μg/cotyledon) a + b” value came to 20.29 μg/cotyledon, the Chlorophyll a/b is on record as 2.0 and the “Change in fresh weight” value is given as 5.78 ± 0.96 mg. For the same compound, the activity at 20 µg/mL in assay [1] (Experiment 2, 20 mg/l, 48 h) turned out to be 71%. Further, in assay [1] (setting [4]), the “cotyledon expansion (in words)” value is “slowed cotyledon expansion” and the “hormone-like activity with respect to expansion growth (in words)” value is reported as “ethylene-like activity”. In assay [1], the “cytokinin-like activities (summary of the examples)” value is “cytokinin-like activities” and the “ethylene-like activities (summary of the examples)” value is reported as “ethylene-like activities”. Also, in the assay on maize roots (other experiments using a different treatment time), the “increase of ethylene production (in words)” value was “effective”.
